Results on two compounds are retold here after patent US11571405B2, “Compositions for improving sexual function” (INXO A/S, priority 2018, dated 2023).

Data set [1] is described as follows: Inventors' findings on amounts of L-arginine and L-citrulline in the unit dosage. In kind it is in vivo. The text has this:
Furthermore, higher amounts of L-arginine worsened the organoleptic properties of the unit dosage.
In an embodiment of the invention, the unit dosage comprises L-citrulline or a physiologically acceptable salt or hydrate thereof in the range from 0.5-3.0 g, such as 0.5-2.9 g, preferably 0.5-2.8 g, more preferably 0.5-2.7 g, such as 0.7-2.0 g, preferably 0.9-2.0 g, more preferably 1.1-2.0 g, even more preferably 1.3-2.0 g, most preferably 1.5-2.0 g.

For data set [2] the following is noted: oral; cited from earlier work.

Consider `N=C(N)NCCC[C@H](N)C(=O)O` [L-arginine], for which, in data set [1], the “amount above which side effects occurred in some instances (e.g. stomachache)” value is listed as “above 10 g” and the “most efficacious amount in the unit dosage” value is listed as 6.0 g. Besides, in data set [2], the “level above which some adverse effects, most commonly diarrhea, have been seen” value is given as “above 20 g per day”.
For the compound `NC(=O)NCCC[C@H](N)C(=O)O` [L-citrulline], in data set [1], the “amount above which efficacy of a unit dosage was not improved further (plateau of efficacy)” value is given as “above 2.0 g”.
